IC50, EC50 and Kd data for 7 compounds are collected here from US11518764B2, “Substituted heteroaryls as inhibitors of the BCL6 BTB domain protein-protein interaction” (Ontario Institute for Cancer Research (OICR), priority 2018, dated 2022).

Structures are written as SMILES.

One test has as its system Karpas422 cells. Kind of test: Tumor cell growth inhibition assay. In kind it is cell-based. The conditions noted are these: Homo sapiens, KARPAS-422, 144 h, read-out: Tumor Growth Inhibition in Karpas-422 (IC50, uM), Karpas422 cells, six days, ATPlite. In a few lines:
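Growth inhibition was measured by ATPlite luminescence after six days of culture at 37° C. in 5% CO2. Karpas422 cells were seeded at 2,000 per well in Alpha-MEM plus 10% FBS. Compounds were given as a 10-point concentration series with a highest dose of 5 uM.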

For test [1], the system named is BCL6 reporter construct (3xBCL6-TK-Luc) in SuDHL4 cells. Kind of test: Cell-based luciferase assay. The note with it: Homo sapiens, SU-DHL-4, 48 h, read-out: Luciferase-Assay EC50, uM), SuDHL4-3xBCL6-TK-Luc cells, two days, high dose 10 uM. The method, boiled down: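 SuDHL4 cells stably carrying a 3×BCL6-site TK-promoter firefly luciferase reporter, seeded at 15,000 cells/well, were dosed over a 10-point range (top 10 uM) and grown two days at 37 °C, 5% CO2. Luminescence then read after adding neolite reagent at room temperature.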

In another test the target is BCL6 BTB domain (Homo sapiens (Human), UniProt P41182). Briefly: Surface plasmon resonance (SPR) assay. The test is classed as binding. The conditions noted are these: BCL6 BTB domain captured on SA chip, single cycle kinetics. (In SPR one partner is held on a chip, and binding of the other changes the refractive index at the surface.)

As for `Cn1cnc2c(c(-c3cc(C(N)=O)c(O)c(F)c3F)cn2CC(=O)Nc2cc(NCCCO)nc(F)c2Cl)c1=O` [Compound I-481, 5-(7-(2-((3-chloro-2-fluoro-6-((3-hydroxypropyl)amino)pyridin-4-yl)amino)-2-oxoethyl)-3-methyl-4-oxo-4,7-dihydro-3H-pyrrolo[2,3-d]pyrimidin-5-yl)-3,4-difluoro-2-hydroxybenzamide], the concentration for half-maximal inhibition (IC50) with Karpas422 cells was found to be 10 µM. Besides, the EC50 in test [1] amounted to 19.4 µM. The compound also registered a Kd on BCL6 BTB domain of 19.2 nM.
On the same counts, the results for `CN1CC2(CCN(c3cc(NC(=O)Cn4cc(-c5cc(Cl)c(O)c(C(N)=O)c5)c5c(=O)n(C)cnc54)c(Cl)cn3)C2)C1` [Compound I-482] are 2.32 µM, 4.69 µM and 34.3 nM.
The matching figures for `CN1CC2(CCN(c3cc(NC(=O)Cn4cc(-c5cc(C(N)=O)c(O)c(F)c5F)c5c(=O)n(C)cnc54)c(Cl)cn3)C2)C1` [Compound I-483]: 10 µM, 10 µM and 128 nM.
The matching figures for `CN1CC2(CCN(c3cc(NC(=O)Cn4cc(-c5cc(F)c(O)c(C(N)=O)c5)c5c(=O)n(C)cnc54)c(Cl)cn3)C2)C1` [Compound I-484]: 10 µM, 21.6 µM and 40.3 nM.
For `CN1CCC2(C1)CN(c1cc(NC(=O)Cn3cc(-c4cc(F)c(O)c(C(N)=O)c4)c4c(=O)n(C)cnc43)c(Cl)cn1)C2` [Compound I-486], in the test on Karpas422 cells, the IC50 is 10 µM. The EC50 in test [1] was 6.95 µM. Moreover, on BCL6 BTB domain, binding was characterised by a dissociation constant (Kd) of 30 nM.
For `C[C@H]1CN(C)C[C@H](C)N1c1cc(NC(=O)Cn2cc(-c3cc(C(N)=O)c(O)c(F)c3F)c3c(=O)n(C)cnc32)c(Cl)c(F)n1` [Compound I-487], in the test on Karpas422 cells, the IC50 turned out to be 1.8 µM. In addition, the EC50 in test [1] stood at 1.29 µM. Further, on BCL6 BTB domain, the dissociation constant (Kd) came to 122 nM.
For `Cn1cnc2c(c(-c3cc(C(N)=O)c(O)c(F)c3F)cn2CC(=O)Nc2cc(N3CCC3)nc(F)c2Cl)c1=O` [Compound I-488], the IC50 in the test with Karpas422 cells came out at 0.417 µM. Moreover, the 50% effective concentration (EC50) in test [1] was 1.28 µM. Besides, binding on BCL6 BTB domain was characterised by a dissociation constant (Kd) of 71.6 nM.

As usually defined, the IC50 is the concentration needed to halve the response being measured. As a reminder, the EC50 is the concentration giving half of the maximal effect. The term Kd denotes the constant that tells how readily two partners part at equilibrium.
